# Assay results as given in paper PMC8113459, “Selective inhibition of cullin 3 neddylation through covalent targeting DCN1 protects mice from acetaminophen-induced liver toxicity” (Nature Communications, 2021).
# Where “and” joins values, the source holds several entries; their conditions need not be identical. Identical values can stand only once.
# What was measured:
# Type in all cases: cell-based, human
# [1] = Cell viability assay (WST-8), U2OS; details: human, U2OS cells, replicates, read-out: cell viability relative to control
# Method: (§1) Cell viability assay was performed as previously described. The effect of DCN1 inhibitors on cell growth was evaluated by a WST-8 [2-(2-methoxy-4-nitrophenyl)-3-(4-nitrophenyl)-5-(2,4-disulfophenyl)-2H-tetrazolium, monosodium salt assay (Dojindo Molecular Technologies, Inc). Cells (2000–3000 cells in each well) were seeded in 96-well tissue culture plates in medium (100 μL) and treated with serial dilution of DCN1 inhibitors for 3 days. At the end of incubation, WST-8 dye (20 μL) was added to each well and incubated for 1–3 h, then the absorbance was measured in a microplate reader (Molecular Devices) at 450 nm. Cell growth inhibition was evaluated as the ratio of the absorbance of the sample to that of the control. The values were inserted into Prism software, and the curves and the EC50 values were produced by Prism software.
# U2OS cells = assay: Cell viability assay (WST-8), U2OS; details: for cell viability relative to control: replicates
# Method: as §1
# [2] = Cell viability assay (WST-8), HCT116; details: human, HCT116 cells, replicates, read-out: cell viability relative to control
# Method: as §1
# HCT116 cells = assay: Cell viability assay (WST-8), HCT116; details: for cell viability relative to control: replicates
# Method: as §1
# four cancer cell lines = assay: Cell viability assay (WST-8), four cancer cell lines; details: concentrations up to 1000 nM, 72 h
# Method: as §1
# neddylation of cullin 3 = assay: Western blot, cullin 3 neddylation in U2OS cells; details: U2OS, Fig. 6c
# Method: (§2) Western blotting was performed as described previously. Treated cells were lysed by RIPA buffer supplemented with protease inhibitor. The expression level of indicated proteins was examined by immunoblotting analysis and GAPDH was used as the loading control. Antibodies were purchased commercially: cullin 1 (sc-17775, 1:500 dilution) and cullin 2 (sc-166506, 1:500 dilution) from Santa Cruz Biotech (Santa Cruz, CA); cullin 4A (PA5-14542, 1:1000 dilution), cullin 4B (PA5-50647, 1:1000 dilution), and DCN3 (DCUN1D3, PA5-44000, 1:1000 dilution) from Thermo Fisher Scientific (Wayne, MI); cullin 3 (2759, 1:1000), NRF2 (12721, 1:1000 dilution), HO-1 (70081, 1:1000 dilution), and Bim (2819, 1:1000 dilution) from Cell Signaling Technology (Boston, MA); DCN1 (GWB-E3D700, 1:1000 dilution) from GenWay Biotech (San Diego, CA); and cullin 5 (A302-173A, 1:500 dilution) from Bethyl Labs (Montgomery, TX). Results are representative of two independent experiments.
# [3] = system: neddylation of cullin 1, 2, 4A, 4B, and 5; assay: Western blot, neddylation of other cullin members
# Method: as §2
# MDA-MB-231 cells = assay: Cell viability assay (WST-8), MDA-MB-231; details: for cell viability relative to control: replicates
# Method: as §1
# [4] = Cell viability assay (WST-8), MDA-MB-231; details: human, MDA-MB-231 cells, replicates, read-out: cell viability relative to control
# Method: as §1
# [5] = Cell viability assay (WST-8), KYSE70; details: human, KYSE70 cells, replicates, read-out: cell viability relative to control
# Method: as §1
# KYSE70 cells = assay: Cell viability assay (WST-8), KYSE70; details: for cell viability relative to control: replicates
# Method: as §1
smiles,measurement,setting,value
NS(=O)(=O)OC[C@@H]1C[C@@H](n2ccc3c(N[C@H]4CCc5ccccc54)ncnc32)C[C@@H]1O [MLN4924],viability at 72 h,"[1]; conc 10, 72 h",108%
same,viability at 72 h,"[1]; conc 30, 72 h",97.3%
same,viability at 72 h,"[1]; conc 100, 72 h",50.8%
same,viability at 72 h,"[1]; conc 1000, 72 h",21%
same,EC50,"U2OS cells; Homo sapiens, U2OS, 72 h, cell line assigned from panel order, read-out: EC50, cell growth inhibition",209 nM
same,cell viability relative to control,"U2OS cells; conc 3, 72 h",108.902 and 87.9268 and 99.0244
same,cell viability relative to control,"U2OS cells; conc 10, 72 h",107.561 and 98.1707
same,cell viability relative to control,"U2OS cells; conc 30, 72 h",105.122 and 104.756
same,cell viability relative to control,"U2OS cells; conc 100, 72 h",49.6951 and 43.1707
same,cell viability relative to control,"U2OS cells; conc 300, 72 h",47.5122 and 35 and 24.2561
same,cell viability relative to control,"U2OS cells; conc 1000, 72 h",34.8293 and 26.6585
same,viability at 72 h,"[2]; conc 3, 72 h",103%
same,viability at 72 h,"[2]; conc 10, 72 h",118%
same,viability at 72 h,"[2]; conc 30, 72 h",106%
same,viability at 72 h,"[2]; conc 300, 72 h",26.5%
same,viability at 72 h,"[2]; conc 1000, 72 h",27.6%
same,EC50,"HCT116 cells; Homo sapiens, HCT-116, 72 h, cell line assigned from panel order, read-out: EC50, cell growth inhibition",294 nM
same,cell viability relative to control,"HCT116 cells; conc 3, 72 h",93.0769 and 97.803
same,cell viability relative to control,"HCT116 cells; conc 10, 72 h",99.5045 and 108.03
same,cell viability relative to control,"HCT116 cells; conc 30, 72 h",98.1868 and 105.151
same,cell viability relative to control,"HCT116 cells; conc 100, 72 h",42.5676 and 63.1319 and 54.6212
same,cell viability relative to control,"HCT116 cells; conc 300, 72 h",39.0549 and 40.989
same,cell viability relative to control,"HCT116 cells; conc 1000, 72 h",32.8022 and 29.945
same,cytotoxicity / cell viability,four cancer cell lines,potently inhibits cell viability
same,time within which the neddylation of cullin 3 is effectively inhibited,neddylation of cullin 3,≤ 30 min
same,inhibition of neddylation of cullin members,"[3]; THLE2, Fig. 6b",potently inhibits neddylation of all cullins
same,time within which the neddylation of cullin 1 is effectively inhibited,"[3]; U2OS, Fig. 6c",≤ 30 min
same,EC50,"MDA-MB-231 cells; Homo sapiens, MDA-MB-231, 72 h, cell line assigned from panel order, read-out: EC50, cell growth inhibition",154 nM
same,cell viability relative to control,"MDA-MB-231 cells; conc 3, 72 h",94.1379 and 99.1954
same,cell viability relative to control,"MDA-MB-231 cells; conc 10, 72 h",109.785 and 104.516
same,cell viability relative to control,"MDA-MB-231 cells; conc 30, 72 h",84.086 and 84.3011
same,cell viability relative to control,"MDA-MB-231 cells; conc 100, 72 h",59.6774 and 48.8172
same,cell viability relative to control,"MDA-MB-231 cells; conc 300, 72 h",28.4946 and 44.3011
same,cell viability relative to control,"MDA-MB-231 cells; conc 1000, 72 h",18.2796 and 26.5591
same,viability at 72 h,"[4]; conc 3, 72 h",106%
same,viability at 72 h,"[4]; conc 10, 72 h",98.2%
same,viability at 72 h,"[4]; conc 30, 72 h",78.8%
same,viability at 72 h,"[4]; conc 100, 72 h",43.4%
same,viability at 72 h,"[4]; conc 300, 72 h",25.5%
same,viability at 72 h,"[4]; conc 1000, 72 h",13.7%
same,viability at 72 h,"[5]; conc 10, 72 h",110%
same,viability at 72 h,"[5]; conc 30, 72 h",76.4%
same,viability at 72 h,"[5]; conc 100, 72 h",59.5%
same,viability at 72 h,"[5]; conc 300, 72 h",41.9%
same,viability at 72 h,"[5]; conc 1000, 72 h",31%
same,EC50,"KYSE70 cells; Homo sapiens, KYSE-70, 72 h, cell line assigned from panel order, read-out: EC50, cell growth inhibition",266 nM
same,cell viability relative to control,"KYSE70 cells; conc 3, 72 h",119.091 and 98.7603 and 92.6446
same,cell viability relative to control,"KYSE70 cells; conc 10, 72 h",116.984 and 100.041
same,cell viability relative to control,"KYSE70 cells; conc 30, 72 h",82.3967
same,cell viability relative to control,"KYSE70 cells; conc 100, 72 h",57.9752
same,cell viability relative to control,"KYSE70 cells; conc 300, 72 h",39.3388
same,cell viability relative to control,"KYSE70 cells; conc 1000, 72 h",29.2149
